Experimental data reported in patent US11434199B2, “Alcohol derivatives as KV7 potassium channel openers” (H. Lundbeck A/S, priority 2018, dated 2022).

Assays:
hKv7.2/hKv7.3 [1] = biological target: T1, hKv7.2/hKv7.3 (Homo sapiens, UniProt O43525+O43526); test: Thallium influx assay for potassium channel activation; assay type: cell-based; conditions: HEK-hKv7.2/hKv7.3 cells; FLIPR Potassium Assay kit; AUC readout normalized to a reference compound
T1 construct: P2A remnant (self-cleaving peptide between Kv7.3 and Kv7.2) (C); expressed in transfected cells
Experimental: (§1) A synthesized cDNA fragment encoding human Kv7.3 and human Kv7.2 separated by a P2A sequence was inserted into the pcDNA5/FRT/TO vector using the BamHI and XhoI restriction sites. The construct was then transfected into HEK Flp-In 293 cells using Lipofectamine2000. The transfected cells were grown for 48 hours in DMEM containing 10% (v/v) FBS and 1% PenStrep and subsequently maintained under selection in DMEM containing 10% (v/v) FBS, 1% PenStrep and 200 ug/mL Hygromycin B at 37° C. in a humidified atmosphere of 5% CO2.
The thallium influx assay for potassium channel activation was performed analogously to a published procedure (C. D. Weaver, et al., J Biomol Screen 2004, 9, 671-677) using the FLIPR Potassium Assay kit (Molecular Devices). HEK-hKv7.2/hKv7.3 cells were plated onto 96-well, black-walled, clear-bottomed culture plates (Corning, Acton, Mass., USA) at a density of 80,000 cells/well (100 μl/well) if the cells were assayed the following day, or 40,000 cells/well (100 μl/well) if the cells were assayed two days after seeding.
On the assay day, the medium was removed after which 50 uL/well of test compound diluted to 2× final concentration in HBSS containing 20 mM HEPES, and 50 uL/well of 2× dye load buffer were added. The cells were then incubated for 60 min at room temperature in the dark. Chloride-free stimulation buffer containing Tl^+ and K^+ at 5× final concentration (5× concentration: 5 mM in both cases) and test compound at 1× final concentration, were prepared during the incubation. The cells were then assayed in a FDSS7000EX Functional Drug Screening System (Hamamatsu). Following 60 sec of baseline fluorescence signal reading at 0.1 Hz, and 10 sec at 1 Hz, 25 uL/well of stimulation buffer were added and the fluorescence continuously measured for 50 sec at 1 Hz followed, by 4 min at 0.1 Hz. Compound effect was quantified using AUC as readout and normalized to a reference compound, which was included on each plate.

hKv7.2/hKv7.3 [2] = biological target: T1, hKv7.2/hKv7.3; test: Automated whole cell patch-clamp functional test of the HEK-hKv7.2/hKv7.3 cell line; assay type: cell-based; conditions: stable HEK-hKv7.2/hKv7.3 cell line
Experimental: as §1

**Q.** Which EC50 (hKv7.2/hKv7.3 [1]) does the source give for `C[C@H](NC(=O)CC(C)(O)C(F)(F)F)c1cccc(OCC(F)(F)F)c1` (single isomer, unassigned) [Example 19a] here?
**A.** 1.7 µM

**Q.** For `CC(C)C(O)(CC(=O)N[C@@H](C)c1cccc(OCC(F)(F)F)c1)C(F)(F)F` (single isomer, unassigned) [Example 7b], which EC50 (hKv7.2/hKv7.3 [1]) is on record?
**A.** 1.5 µM

**Q.** `C[C@H](NC(=O)CC(O)C1CC(F)(F)C1)c1cccc(OC(F)(F)F)c1` (single isomer, unassigned) [Example 11b] was tested. Which EC50 (hKv7.2/hKv7.3 [1]) did it give?
**A.** 4.5 µM

**Q.** For `C[C@H](NC(=O)CC(O)C(C)(C)C)c1cccc(OCC(F)(F)F)c1` (single isomer, unassigned) [Example 2a], which EC50 (hKv7.2/hKv7.3 [1]) is on record?
**A.** 0.46 µM

**Q.** Which “effect on Kv7-current” value (hKv7.2/hKv7.3 [2]) does the source give for `CCOC(=O)Nc1ccc(NCc2ccc(F)cc2)cc1N` [Retigabine, N-(2-amino-4-(4-fluorobenzylamino)-phenyl) carbamic acid ethyl ester] here?
**A.** potentiated

**Q.** For `CC[C@H](NC(=O)CC(O)C(C)(C)C)c1cccc(OC(F)(F)F)c1` (single isomer, unassigned) [Example 8b], which EC50 (hKv7.2/hKv7.3 [1]) is on record?
**A.** 3 µM

**Q.** `C[C@H](NC(=O)C[C@@](C)(O)C1(F)CC1)c1cccc(OC(F)(F)F)c1` (single isomer, unassigned) [Example 15a] was tested. Which EC50 (hKv7.2/hKv7.3 [1]) did it give?
**A.** 2.1 µM

**Q.** How did the EC50 (hKv7.2/hKv7.3 [1]) turn out when `C[C@H](NC(=O)CC(C)(O)C1CC1)c1cccc(OCC(F)(F)F)c1` (single isomer, unassigned) [Example 18b] was run?
**A.** 7.1 µM

**Q.** How did the EC50 (hKv7.2/hKv7.3 [1]) turn out when `C[C@H](NC(=O)CC(O)C(C)(C)C)c1cccc(OC(F)F)c1` (single isomer, unassigned) [Example 3a] was run?
**A.** 11 µM

**Q.** How did the EC50 (hKv7.2/hKv7.3 [1]) turn out when `C[C@H](NC(=O)CC(O)C(C)(C)C)c1cccc(C(F)(F)F)c1` (single isomer, unassigned) [Example 4b] was run?
**A.** 1.2 µM

**Q.** `C[C@H](NC(=O)CC(C)(O)CC(F)(F)F)c1cccc(OC(F)(F)F)c1` (single isomer, unassigned) [Example 13b] was tested. Which EC50 (hKv7.2/hKv7.3 [1]) did it give?
**A.** 2.9 µM

**Q.** For `C[C@H](NC(=O)CC(O)C1(C(F)(F)F)CC1)c1cccc(OC(F)(F)F)c1` (single isomer, unassigned) [Example 16a], which EC50 (hKv7.2/hKv7.3 [1]) is on record?
**A.** 3 µM

**Q.** `CC(C)C(O)CC(=O)N[C@@H](C)c1cccc(OC(F)(F)F)c1` (single isomer, unassigned) [Example 20b] was tested. Which EC50 (hKv7.2/hKv7.3 [1]) did it give?
**A.** 14 µM

**Q.** With `O=C1c2ccccc2C(Cc2ccncc2)(Cc2ccncc2)c2ccccc21` [XE991] as the compound, how does the “effect on Kv7-current” value (hKv7.2/hKv7.3 [2]) read?
**A.** sensitive

**Q.** With `C[C@H](NC(=O)CC(O)C(C)(C)C)c1cccc(OCC(F)(F)F)c1` (single isomer, unassigned) [Example 2b] as the compound, how does the EC50 (hKv7.2/hKv7.3 [1]) read?
**A.** 1.8 µM

**Q.** With `C[C@H](NC(=O)C[C@@H](O)C1(C(F)F)CC1)c1cccc(OC(F)(F)F)c1` (single isomer, unassigned) [Example 14b] as the compound, how does the EC50 (hKv7.2/hKv7.3 [1]) read?
**A.** 6.6 µM

**Q.** `C[C@H](NC(=O)CC(C)(O)C(F)(F)F)c1cccc(OCC(F)(F)F)c1` (single isomer, unassigned) [Example 19b] was tested. Which EC50 (hKv7.2/hKv7.3 [1]) did it give?
**A.** 3.4 µM

**Q.** With `C[C@H](NC(=O)CC(C)(O)C1CC1)c1cccc(OCC(F)(F)F)c1` (single isomer, unassigned) [Example 18a] as the compound, how does the EC50 (hKv7.2/hKv7.3 [1]) read?
**A.** 1.3 µM

**Q.** How did the EC50 (hKv7.2/hKv7.3 [1]) turn out when `C[C@H](NC(=O)CC(O)C1(C(F)F)CC1)c1cccc(OC(F)(F)F)c1` (single isomer, unassigned) [Example 14a] was run?
**A.** 2 µM

**Q.** `CC(C)C(O)CC(=O)N[C@@H](C)c1cccc(OCC(F)(F)F)c1` (single isomer, unassigned) [Example 12b] was tested. Which EC50 (hKv7.2/hKv7.3 [1]) did it give?
**A.** 5.9 µM

**Q.** For `CC(C)C(O)(CC(=O)N[C@@H](C)c1cccc(OCC(F)(F)F)c1)C(F)(F)F` (single isomer, unassigned) [Example 7a], which EC50 (hKv7.2/hKv7.3 [1]) is on record?
**A.** 0.22 µM

**Q.** With `C[C@H](NC(=O)CC(O)C(C)(C)C)c1cccc(OC(F)F)c1` (single isomer, unassigned) [Example 3b] as the compound, how does the EC50 (hKv7.2/hKv7.3 [1]) read?
**A.** 1.5 µM

**Q.** How did the EC50 (hKv7.2/hKv7.3 [1]) turn out when `C[C@H](NC(=O)CC(C)(O)C(F)(F)C(F)F)c1cccc(OC(F)(F)F)c1` (single isomer, unassigned) [Example 10b] was run?
**A.** 1.3 µM

**Q.** For `C[C@H](NC(=O)CC(O)C1(C(F)(F)F)CC1)c1cccc(OC(F)(F)F)c1` (single isomer, unassigned) [Example 16b], which EC50 (hKv7.2/hKv7.3 [1]) is on record?
**A.** 10 µM

**Q.** With `C[C@H](NC(=O)CC(C)(O)C1(F)CC1)c1cccc(OC(F)(F)F)c1` (single isomer, unassigned) [Example 15b] as the compound, how does the EC50 (hKv7.2/hKv7.3 [1]) read?
**A.** 11 µM

**Q.** How did the EC50 (hKv7.2/hKv7.3 [1]) turn out when `CC(C)C(O)CC(=O)N[C@@H](C)c1cccc(OCC(F)(F)F)c1` (single isomer, unassigned) [Example 12a] was run?
**A.** 1.6 µM

**Q.** For `CC[C@H](NC(=O)CC(O)C(C)(C)C)c1cccc(OC(F)(F)F)c1` (single isomer, unassigned) [Example 8a], which EC50 (hKv7.2/hKv7.3 [1]) is on record?
**A.** 0.43 µM

**Q.** How did the EC50 (hKv7.2/hKv7.3 [1]) turn out when `CC(C)C(O)CC(=O)N[C@@H](C)c1cccc(OC(F)(F)F)c1` (single isomer, unassigned) [Example 20a] was run?
**A.** 3.1 µM

**Q.** For `C[C@H](NC(=O)CC(O)C(C)(C)C)c1cccc(C(F)(F)F)c1` (single isomer, unassigned) [Example 4a], which EC50 (hKv7.2/hKv7.3 [1]) is on record?
**A.** 11 µM
